Here are results for two molecules from US20090317741A1, “COMPOUND, ACID GENERATOR, RESIST COMPOSITION AND METHOD OF FORMING RESIST PATTERN” (Tokyo Ohka Kogyo Co., Ltd., priority 2006, published 2009).

The procedure of this series: The solution of propylene glycol monomethyl ether acetate (PGMEA), propylene glycol monomethyl ether (PGME), or ethyl lactate (EL) with each compound described above was prepared, while changing the concentration. After the preparation, each solution was stirred, and then the concentration in which each acid generator was completely dissolved was measured.

As to `CCC(C)(C)c1ccc(-[s+]2c3ccccc3c3ccccc32)cc1` [Compound (b1-24)], the “Solubility in EL” value is greater than 20 % by weight, the “Solubility in PGME” value is greater than 20 % by weight and the “Solubility in PGMEA” value is reported as 15 % by weight.

Take `CC(C)(C)c1ccc(-[s+]2c3ccccc3c3ccccc32)cc1` [Compound (b1-21)]: the “Solubility in EL” value was 7 % by weight, the “Solubility in PGME” value is reported as greater than 20 % by weight and the “Solubility in PGMEA” value worked out at 5 % by weight.
